# Numbered stars: 1 amine (or outer) side, 2 acyl side, 3 side chain; on linkers, the order of the positions; unused ones are H or OH. Bridge positions count the residues as written; N and C are the ends. Square brackets hold non-standard residues; d marks the D form. Peptide text beside a SMILES is read from it. * marks the point of attachment. hPhe(3-Cl-4-CF3) = N[C@@H](CCc1ccc(C(F)(F)F)c(Cl)c1)C(=O)O; hPhe(3-F,4-CF3) = N[C@@H](CCc1ccc(C(F)(F)F)c(F)c1)C(=O)O; hPhe(4-CF3) = N[C@@H](CCc1ccc(C(F)(F)F)cc1)C(=O)O; NMePhe(4-Cl) = CN[C@@H](Cc1ccc(Cl)cc1)C(=O)O; NMePhe(4-Me) = CN[C@@H](Cc1ccc(C)cc1)C(=O)O; NMedβ3hAla = C[C@H](CC(=O)[*:2])N(C)[*:1]; NMeGly(cPent) = CN[C@H](C(=O)O)C1CCCC1; NMeCha = CN[C@@H](CC1CCCCC1)C(=O)O; NEtLeu = CCN[C@@H](CC(C)C)C(=O)O; NMeChg = CN[C@H](C(=O)O)C1CCCCC1; NMeF = CN[C@@H](Cc1ccccc1)C(=O)O; NMeD = CN[C@@H](CC(=O)O)C(=O)O; dNMeD = CN[C@H](CC(=O)O)C(=O)O; NMeL = CN[C@@H](CC(C)C)C(=O)O; NMehSer = CN[C@@H](CCO)C(=O)O; NMeV = CN[C@H](C(=O)O)C(C)C; d(β3hA) = C[C@@H](N)CC(=O)O; Azetidin(1-yl) = C1CN(*)C1; NMeS = CN[C@@H](CO)C(=O)O; NMeA = CN[C@@H](C)C(=O)O; Piperidide = C1CCN(*)CC1; Pyrrolidide = C1CCN(*)C1; Ac5c = NC1(C(=O)O)CCCC1; Aze = O=C(O)[C@@H]1CCN1; CH2CMe2OH = CC(C)(O)C*; NBuGly = CCCCNCC(=O)O; Aib = CC(C)(N)C(=O)O; Isopentyl = CC(C)CC*; Sar = CNCC(=O)O
# Molecular target: protein-protein interaction between Kras and SOS1 (biotin-tagged human Kras loaded with GDP, His-tagged human SOS1) (Homo sapiens (Human), UniProt P01116, G12D)
# Assay: Protein-protein interaction inhibition between Kras and SOS1 (KrasG12D-SOS PPI) using AlphaScreen;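 note: kras produced in E. coli, Ni-coupled donor beads and streptavidin acceptor beads, excitation 680 nm with emission detected at 520–620 nm via singlet oxygen transfer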
# Format: biochemical
# Conditions: AlphaScreen; biotin-tagged human Kras loaded with GDP, His-tagged human SOS1; read-out: KRAS G12D-SOS PPI IC50
row,Structure (SMILES),IC50 [nM]
1,CC[C@H](C)[C@@H]1NC(=O)[C@H](CC(C)C)N(C)C(=O)C[C@H](C(=O)N2CCCC2)N(C)C(=O)[C@H](C2CCCC2)N(C)C(=O)C2(CCCC2)NC(=O)[C@@H]2CCCN2C(=O)[C@H](CCc2ccc(C(F)(F)F)c(Cl)c2)NC(=O)CN(C)C(=O)[C@H](CC2CCCCC2)N(C)C(=O)[C@@H]2CCN2C(=O)[C@H](C)N(C)C1=O [Compound 1868] ([NMeL]I[NMeA][Aze][NMeCha][Sar][hPhe(3-Cl-4-CF3)]P[Ac5c][NMeGly(cPent)][dNMeD]-Pyrrolidide; lactam N-11),100
2,CCCCN1CC(=O)N(C)CC(=O)N(C)[C@@H](COCCC(C)C)C(=O)N(C)CC(=O)N[C@@H](CCc2ccc(C(F)(F)F)c(Cl)c2)C(=O)N[C@@H](COCC(C)(C)O)C(=O)NC(C)(C)C(=O)N(C)[C@@H](CC(C)C)C(=O)N[C@H](C)CC(=O)N(C)[C@@H](CC(C)C)C(=O)N[C@@H]([C@@H](C)CC)C1=O [Compound 1473] (cyclo([Aib][NMeL][d(β3hA)][NMeL]I[NBuGly][Sar][NMeS](Isopentyl)[Sar][hPhe(3-Cl-4-CF3)]S(CH2CMe2OH))),390
3,CC[C@H](C)[C@@H]1NC(=O)[C@H](CC(C)C)N(C)C(=O)C[C@@H](C(=O)N2CCCC2)N(C)C(=O)[C@H](C2CCCC2)N(C)C(=O)C2(CCCC2)NC(=O)[C@@H]2CCCN2C(=O)[C@H](CCc2ccc(C(F)(F)F)c(Cl)c2)NC(=O)CN(C)C(=O)[C@H](CC2CCCCC2)N(C)C(=O)[C@@H]2CCN2C(=O)[C@H](C)N(C)C1=O [Compound 1679] ([NMeL]I[NMeA][Aze][NMeCha][Sar][hPhe(3-Cl-4-CF3)]P[Ac5c][NMeGly(cPent)][NMeD]-Pyrrolidide; lactam N-11),0.85
4,CC[C@H](C)[C@@H]1NC(=O)[C@H](C)NC(=O)C[C@@H](C)N(C)C(=O)[C@H](CC(C)C)N(C)C(=O)[C@H](Cc2ccccc2)N(C)C(=O)[C@H](CC(C)C)NC(=O)[C@H](CCc2ccc(C(F)(F)F)cc2)NC(=O)CN(C)C(=O)[C@H](Cc2ccc(Cl)cc2)N(C)C(=O)CN(C)C(=O)CN(C)C1=O [Compound 406] (cyclo(AI[Sar][Sar][NMePhe(4-Cl)][Sar][hPhe(4-CF3)]L[NMeF][NMeL][NMedβ3hAla])),250
5,CC[C@H](C)[C@@H]1NC(=O)[C@H](CC(C)C)N(CC)C(=O)C[C@@H](C(=O)N2CCC2)N(C)C(=O)[C@H](C2CCCC2)N(C)C(=O)C2(CCCC2)NC(=O)[C@@H]2CCCN2C(=O)[C@H](CCc2ccc(C(F)(F)F)c(Cl)c2)NC(=O)CN(C)C(=O)[C@H](CC2CCCCC2)N(C)C(=O)[C@@H]2CCN2C(=O)[C@H](C)N(C)C1=O [Compound 1198] ([NEtLeu]I[NMeA][Aze][NMeCha][Sar][hPhe(3-Cl-4-CF3)]P[Ac5c][NMeGly(cPent)][NMeD]-{Azetidin(1-yl)}; lactam N-11),1.2
6,CC[C@H](C)[C@@H]1NC(=O)[C@H](CC(C)C)N(C)C(=O)C[C@@H](C(=O)N2CCCCC2)N(C)C(=O)[C@H](C2CCCCC2)N(C)C(=O)C2(CCCC2)NC(=O)[C@H](CCOC)N(C)C(=O)[C@H](CCc2ccc(C(F)(F)F)c(Cl)c2)NC(=O)CN(C)C(=O)[C@H](CC2CCCCC2)N(C)C(=O)CN(C)C(=O)CN(C)C1=O [Compound 2168] ([NMeL]I[Sar][Sar][NMeCha][Sar][hPhe(3-Cl-4-CF3)][NMehSer](Me)[Ac5c][NMeChg][NMeD]-Piperidide; lactam N-11),1.3
7,CC[C@H](C)[C@@H]1NC(=O)[C@H](C2CCCCC2)N(C)C(=O)C[C@@H](C(=O)N2CCCCC2)N(C)C(=O)[C@H](C(C)C)N(C)C(=O)C2(CCCC2)NC(=O)[C@@H]2CCCN2C(=O)[C@H](CCc2ccc(C(F)(F)F)c(Cl)c2)NC(=O)CN(C)C(=O)[C@H](CC2CCCCC2)N(C)C(=O)[C@@H]2CCN2C(=O)[C@H](C)N(C)C1=O [Compound 58] ([NMeChg]I[NMeA][Aze][NMeCha][Sar][hPhe(3-Cl-4-CF3)]P[Ac5c][NMeV][NMeD]-Piperidide; lactam N-11),28
8,"CC[C@H](C)[C@@H]1NC(=O)[C@H](CC(C)C)N(C)C(=O)C[C@@H](C(=O)N2CCCCC2)N(C)C(=O)[C@H](C(C)C)N(C)C(=O)C2(CCCC2)NC(=O)[C@@H]2CCCN2C(=O)[C@H](CCc2ccc(C(F)(F)F)c(F)c2)NC(=O)CN(C)C(=O)[C@H](CC2CCCCC2)N(C)C(=O)[C@@H]2CCN2C(=O)[C@H](C)N(C)C1=O [Compound 1040] ([NMeL]I[NMeA][Aze][NMeCha][Sar][hPhe(3-F,4-CF3)]P[Ac5c][NMeV][NMeD]-Piperidide; lactam N-11)",14
9,CC[C@H](C)[C@@H]1NC(=O)[C@H](CC(C)C)N(C)C(=O)C[C@@H](C)NC(=O)[C@H](C2CCCC2)N(C)C(=O)C2(CCCC2)NC(=O)[C@@H]2CCCN2C(=O)[C@H](CCc2ccc(C(F)(F)F)c(Cl)c2)NC(=O)CN(C)C(=O)[C@H](Cc2ccc(C)cc2)N(C)C(=O)[C@@H]2CCN2C(=O)[C@H](C)NC1=O [Compound 1331] (cyclo(A[Aze][NMePhe(4-Me)][Sar][hPhe(3-Cl-4-CF3)]P[Ac5c][NMeGly(cPent)][d(β3hA)][NMeL]I)),1.1

# Source: patent publication US20240148821A1, “PHARMACEUTICAL USE OF CYCLIC PEPTIDE COMPOUND” (CHUGAI SEIYAKU KABUSHIKI KAISHA, priority 2021, published 2024)
